What was measured:
[1] = tested on: amphetamine group toxicity; assay: Investigation of the amphetamine group toxicity; assay type: in vivo, CFLP mice; settings: d-amphetamine 25 mg/kg i.p., 24 hours
Method: (§1) The neuroleptic effect of the compounds was shown by investigations on the central nervous system of Hannover Wistar rats and CFLP mice. The compounds to be tested were orally administered in a dose of 5 ml/kg of body-weight to rats or in a dose of 10 ml/kg of body-weight to mice, respectively at 60 minutes before beginning the experiment.
(§2) The compounds to be tested were suspended in TWEEN 80 and diluted to the desired concentration by adding physiological saline solution.
(§3) The results are expressed either as percentages, or ED50 values calculated by using the probit analysis are given together with the 95% fiducial (confidential) limits (J. T. Litchfield and F. Wilcoxon: J. Pharmacol. 96, 99 (1949)).
The method of C. D. Proctor et al. (Arch. Int. Pharmacodyn. Ther. 163, 74 (1966)) was used for this study.
The examination was carried out on mice of both sexes weighing 22 to 27 g (n=5). At the […], d-amphetamine in a dose of 25 mg/kg was intraperitoneally given to the animals tightly closed together (25 cm^2 /mouse) and the percentage of the perished animals was registered after 24 hours.

D-2 receptors = target: T1, D-2 receptors (Rattus norvegicus, UniProt P61169); assay: D-2 receptor binding (3H-spiroperidol, rat striatum); set-up: species or system Hannover Wistar rats; settings: for D-2/α1 Selectivity ratio: ratio of IC50 D-2 to IC50 α1
T1 construct: Hannover Wistar rats were decapitated and the striatum from their cortex was prepared; from tissue; host or cells: striatum membranes of Hannover Wistar rats
Method: Hannover Wistar rats were decapitated and the striatum from their cortex was prepared. The striata were homogenized in a 10-fold volume of a cold buffer solution (50 mmoles of TRIS HCl, 120 mmoles of NaCl, 2 mmoles of KCl, 1 mmoles of MgCl2 and 5 mmoles of CaCl2, at pH 7.4) and centrifuged at 40000 g for 15 minutes. The thus-obtained sediment was suspended in the buffer in a concentration of 100 ml/g (in a protein concentration of 0.7 to 0.8 mg/ml).
After an incubation at 37° C. for 15 minutes, the samples were filtered through a Whatman GF/B filter and washed 2 times with 5 ml of buffer solution each.
For the determination of the non-specific binding, 1 μmole of (+)-butaclamol was used.
(§4) On using both above-mentioned receptor binding methods, a scintillation solution was applied onto the filter paper in the cuvet and the isotopic radioactivity was measured on the next day.

α1-adrenergic receptor = α1-adrenergic receptor binding (3H-prazosine, rat cortex); set-up: species or system Hannover Wistar rats; settings: for IC50: 3H-prazosine, rat cortex, 23° C., 30 minutes; for side-effect on the α1 receptors relative to chloropromazine: from IC50 on α1 receptors
Method: Hannover Wistar rats were decapitated, their cortex were prepared and homogenized in a 20-fold volume of a buffer solution (50 mmoles of TRIS HCl, at pH 8). The membrane was centrifuged at 45000 g twice for 15 minutes and then suspended in the buffer in a concentration of 30 ml/g (in a protein concentration of 1.7 to 1.8 mg/ml).
After an incubation at 23° C. for 30 minutes, the samples were filtered through a Whatman GF/B filter and washed 4 times with 4 ml of buffer solution each.
For the determination of the non-specific binding, 10 μmoles of phentolamine were used.
as §4

asphyxial anoxia = assay: Investigation of the asphyxial anoxia; assay type: in vivo, CFLP mice; settings: Mus musculus, po, 1 h; mice, survival time longer by 30% than control counted as protected
Method: as §1, §2, §3
The method of C. Caillard et al. (Life Sci. 16, 1607 (1975)) was used for this study.
Mice (n=5) of both sexes weighing 22 to 24 g were starved for 16 hours, then treated with 50 mg/kg dose of the substances to be tested. After 60 minutes, the animals were placed in tightly closed glass bottles of 100 ml volume and the survival time was registered.

[2] = tested on: conditioned avoidance response; assay: Inhibition of the conditioned avoidance response (CAR inhibition); assay type: in vivo, Hannover Wistar rats; settings: Rattus norvegicus, po, 1 h; rats, p.o., 60 minutes before experiment
Method: as §1, §2, §3
Male rats weighing 140 to 160 g were conditioned for 10 days in an automated six-channel shuttle box (D. Bovet et. al.: Neuropsychopharmacology, Vol. 2., p. 142 Elsevier Publishing House, Amsterdam, 1961).
Each one session consisted of 6 cycles; the time of a partial cycle was: 15 seconds for intersignal time, 15 seconds for light stimulus, 10 seconds for light stimulus and footshock (0.8 mA). […]

catalepsy = assay: Investigation of the cataleptogenic effect; assay type: in vivo, Hannover Wistar rats; settings: Rattus norvegicus, po; rats, observed hourly for 5 hours
Method: as §1, §2, §3
The method of G. Stille and H. Launer Arzneim.-forsch. 21, 252 (1971) was used for this study.
Male rats weighing 90 to 110 g (n=5) were treated with different doses of the compounds to be tested, then the number of the animals showing catalepsy was hourly observed for 5 hours.

[3] = tested on: hypermotility induced by L-Dopa; assay: Inhibition of the hypermotility induced by L-Dopa; assay type: in vivo, CFLP mice; settings: mice, 30 mg/kg p.o., nialamide 40 mg/kg and L-Dopa 100 mg/kg i.p., difference from control
Method: as §1, §2, §3
The method of N. P. Plotnikoff et al. ("The Thyroid Axis, Drugs and Behavior", Raven Press, N.Y., pp. 103-113 (1974)) was used for this study.
Male mice (n=15) weighing 18 to 21 g were intraperitoneally treated with 40 mg/kg of nialamide and after 60 minutes, the substances to be tested were administered in a dose of 30 mg/kg. Thirty minutes later, 100 mg/kg of L-Dopa were intraperitoneally administered. The locomotor activity of the animals was measured by using an LKB Animex DSE motimeter in each 30th minute for 2 hours. The results are given as the percentage of the difference from the control.

apomorphine hypothermia = assay: Investigation of the apomorphine hypothermia-reverting effect; assay type: in vivo, Hannover Wistar rats; settings: rats, 10 mg/kg p.o., apomorphine 5 mg/kg i.p.
Method: as §1, §2, §3
The method of A. Barnett et al. (Arch. Int. Pharmacodyn. Ther. 198, 242 (1972)) was used for this study.
The rectal temperature of rats (n=5) was determined by using an Ellab thermometer (E3) before administering the substances to be tested in a dose of 10 mg/kg. Thereafter, 5 mg/kg of apomorphine were intraperitoneally given and the temperature of the animals was hourly registered for 3 hours.

central dopaminergic = settings: Acta Pharm. Suec. 1983, 111-119; cited from earlier work

T1 sequence (P61169 whole entry): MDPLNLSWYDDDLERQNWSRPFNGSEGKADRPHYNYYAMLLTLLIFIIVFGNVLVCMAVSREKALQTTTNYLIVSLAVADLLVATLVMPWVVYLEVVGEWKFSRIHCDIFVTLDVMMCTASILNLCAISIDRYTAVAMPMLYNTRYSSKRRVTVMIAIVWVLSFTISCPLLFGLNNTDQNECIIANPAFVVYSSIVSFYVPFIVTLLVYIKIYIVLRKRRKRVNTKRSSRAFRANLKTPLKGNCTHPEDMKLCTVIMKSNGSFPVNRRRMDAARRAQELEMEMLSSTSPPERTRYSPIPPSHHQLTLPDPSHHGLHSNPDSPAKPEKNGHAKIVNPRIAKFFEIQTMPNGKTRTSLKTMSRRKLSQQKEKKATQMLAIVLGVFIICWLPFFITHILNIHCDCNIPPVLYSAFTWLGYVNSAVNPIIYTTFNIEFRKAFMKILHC

| Structure (SMILES) | IC50 (D-2 receptors) [nM] | D-2/α1 Selectivity ratio (D-2 receptors) | IC50 (α1-adrenergic receptor) [nM] | ED50 (asphyxial anoxia) [mg/kg] | ED50 [2] [mg/kg] | ED50 (catalepsy) [mg/kg] | L-Dopa induced hypermot. inhibition % (60 min.) [3] [%] | L-Dopa induced hypermot. inhibition % (120 min.) [3] [%] | Apomorphine hypothermia, difference of temperature change vs apomorphine (60 min.) (apomorphine hypothermia) | Apomorphine hypothermia, difference of temperature change vs apomorphine (120 min.) (apomorphine hypothermia) | central dopaminergic agonist activity (central dopaminergic) | side-effect on the α1 receptors relative to chloropromazine (α1-adrenergic receptor) | also measured |
| --- | --- | --- | --- | --- | --- | --- | --- | --- | --- | --- | --- | --- | --- |
| CN1C[C@H](CO)C=C2c3cccc4[nH]c(Cl)c(c34)C[C@H]21.O=C(O)/C=C\C(=O)O [2-Chlorolysergol maleate] | 5.3 | 0.12 | 45.4 | 39.8 | 3.4 | 13.6 | -47 | -50 | +0.9 °C | +1.1 °C | – | – | ED50 ([1]; Mus musculus, po, mice, p.o., read-out: Amphetamine group tox. ED50): 28.9 mg/kg |
| CN1C[C@H](CO)C=C2c3cccc4[nH]c(Br)c(c34)C[C@H]21.O=C(O)/C=C\C(=O)O [2-Bromolysergol maleate] | 76.5 | 3.2 | 24.1 | 35.6 | 2.7 | 10.8 | -60 | -65 | +1.9 °C | +2.4 °C | – | – | Amphetamine group tox., mice died (footnote *) ([1]; 20 mg/kg p.o.): 10% |
| CCN(CC)C(=O)NC1C=C2c3cccc4[nH]c(Br)c(c34)CC2N(C)C1 (stereo not drawn) [2-Bromolysuride, reference compound] | – | – | – | – | – | 3.3 | – | – | – | – | – | – | – |
| CN(C)CCCN1c2ccccc2Sc2ccc(Cl)cc21 [Chloropromazine, reference compound] | – | – | 15.8 | – | – | – | – | – | – | – | – | – | – |
| CN1C[C@H](CO)C=C2c3cccc4[nH]c(Br)c(c34)C[C@H]21 [2-bromolysergol] | – | – | – | – | – | – | – | – | – | – | inactive | somewhat lower | – |
| CN1C[C@H](CO)C=C2c3cccc4[nH]c(Cl)c(c34)C[C@H]21 [2-chlorolysergol] | – | – | – | – | – | – | – | – | – | – | inactive | one-third | D-2/α1 selectivity ratio relative to chloropromazine (D-2 receptors): ten times lower; dopaminergic (D-2) activity relative to chloropromazine (D-2 receptors; from IC50 on D-2 receptors): three times as high |

Reference: patent publication US4681887A, “Pharmaceutical compositions with a neuroleptic action and process for preparing same” (Richter Gedeon Vegyeszeti Gyar Rt., priority 1985, dated 1987)
